Measured values from patent US20250213564A1, “COMPOSITIONS AND METHODS FOR THE TREATMENT OF ALZHEIMER'S DISEASE AND OTHER NEUROGENERATIVE DISEASE” (priority 2022, published 2025).
Structures can show the parent of a compound that is named as a salt.

How the values were obtained:
[1] = test system: Ctrl and APP/PS1 (AD) mice; experiment: Contextual fear conditioning (CFC), 3-shock; assay type: in vivo; settings: for memory retrieval: 2-month-old male AD mice; for learning (freezing during training): male AD mice
Description: A 3-shock CFC paradigm was administered as previously described (Denny et al., 2014; Drew et al., 2010). Fear conditioning was conducted in chambers obtained from Coulborn Instruments (Allentown, PA) with internal dimensions of approximately 20 cm wide×16 cm deep×20.5 cm high. The chambers had metal walls on each side, clear plastic front and back walls and ceilings, and stainless-steel bars on the floor. A house light (CM1820 bulb, 28 V, 100 mA) mounted directly above the chamber provided illumination. Each chamber was located inside a larger, insulated, plastic cabinet that provided protection from outside light and noise. Each cabinet contained a ventilation fan that was operated during the sessions. A paper towel dabbed with lemon solution was placed underneath the chamber floor. Mice were held outside the experimental room in their home cages prior to testing and transported to the conditioning apparatus individually in standard mouse cages. Chambers were cleaned with 70% EtOH between each set of mice. Training sessions were conducted using a 3-shock protocol. Mice were placed into the conditioning chamber and received shocks at 180 s, 240 s, and 300 s (2 s duration each, 0.75 mA). Fifteen seconds after the last shock, mice were removed from the chamber. Overall, the training session lasted 317 s. […] All sessions were scored for freezing using FreezeFrame4 (Actimetrics, Wilmette, IL).

[2] = test system: Ctrl and APP/PS1 (AD) mice; experiment: Marble burying (MB); assay type: in vivo; settings: for percentage of marbles buried: 2-month-old female AD mice
Description: The MB assay was conducted in a clean cage (10.5 in×5.5 in) containing soft pliable Beta Chip bedding (Northeastern Products Corp, Warrensburg, NY). The cage contained 16 marbles set up in 4 rows of 4 across. Mice were given 20 minutes to explore and bury. At the end of the assay, the percentage of marbles buried was calculated.

[3] = test system: 5xFAD mouse model of Alzheimer's disease (AD); settings: Giannoni et al., 2013; cited from earlier work
[4] = target: hERG (human Ether-a-go-go Related Gene) channels (Homo sapiens, UniProt Q12809); settings: cited from earlier work
Chain of hERG (human Ether-a-go-go Related Gene) channels (Q12809 whole entry): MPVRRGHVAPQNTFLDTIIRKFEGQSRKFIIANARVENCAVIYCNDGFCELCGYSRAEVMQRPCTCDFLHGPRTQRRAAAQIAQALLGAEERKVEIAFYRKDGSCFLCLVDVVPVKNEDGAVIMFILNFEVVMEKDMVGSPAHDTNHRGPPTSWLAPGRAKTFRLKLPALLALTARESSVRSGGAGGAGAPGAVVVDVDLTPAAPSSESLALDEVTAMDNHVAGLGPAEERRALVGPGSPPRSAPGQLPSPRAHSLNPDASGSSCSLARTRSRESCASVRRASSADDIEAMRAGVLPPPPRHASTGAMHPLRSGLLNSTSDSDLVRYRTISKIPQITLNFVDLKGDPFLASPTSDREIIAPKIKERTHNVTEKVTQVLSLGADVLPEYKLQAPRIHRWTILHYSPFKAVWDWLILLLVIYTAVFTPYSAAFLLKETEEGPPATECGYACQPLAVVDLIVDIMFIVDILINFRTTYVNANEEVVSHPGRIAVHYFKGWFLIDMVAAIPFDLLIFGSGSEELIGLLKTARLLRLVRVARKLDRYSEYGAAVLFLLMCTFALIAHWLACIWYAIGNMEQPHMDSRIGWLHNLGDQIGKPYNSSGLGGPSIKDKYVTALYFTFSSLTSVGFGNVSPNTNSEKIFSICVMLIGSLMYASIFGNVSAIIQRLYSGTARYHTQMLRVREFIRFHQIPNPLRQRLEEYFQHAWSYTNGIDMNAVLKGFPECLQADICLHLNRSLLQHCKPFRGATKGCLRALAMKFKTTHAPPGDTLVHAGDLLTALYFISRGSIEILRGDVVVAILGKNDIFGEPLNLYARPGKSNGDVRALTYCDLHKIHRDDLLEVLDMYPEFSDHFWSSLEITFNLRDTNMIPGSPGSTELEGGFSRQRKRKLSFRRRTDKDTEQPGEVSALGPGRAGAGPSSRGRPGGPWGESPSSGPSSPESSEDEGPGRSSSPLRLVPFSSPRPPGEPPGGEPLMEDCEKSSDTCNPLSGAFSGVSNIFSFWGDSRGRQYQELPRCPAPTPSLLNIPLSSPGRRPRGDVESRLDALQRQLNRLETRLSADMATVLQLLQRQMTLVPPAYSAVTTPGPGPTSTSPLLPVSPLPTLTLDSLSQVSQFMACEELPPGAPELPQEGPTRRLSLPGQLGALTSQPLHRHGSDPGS

[5] = mouse, in vivo
[6] = test system: Ctrl and APP/PS1 (AD) mice; settings: male Ctrl mice; single injection; compared to Ctrl mice
Description: The APP/PS1 (AD) mice were previously bred with the ArcCreER^T2×enhanced yellow fluorescent protein (EYFP) mice (Denny et al., 2014; Perusini et al., 2017). Female and male mice were used in all experiments. The Ctrl mice were APP/PS1 (−)×ArcCreER^T2 (+) or (−)×EYFP (+/−), and the AD mice were APP/PS1 (+)×ArcCreER^T2 (+) or (−)×EYFP (+/−). Mice were housed 4-5 per cage in a 12-h (06:00-18:00) light-dark colony room at 22° C. Mice had ad libitum access to food and water.
All drugs were resuspended in saline and made fresh for each experiment. […] These dosages were chosen based upon previous studies (Brachman et al., 2016; Chen et al., 2020a). […] All drugs were prepared in physiological saline and administered intraperitoneally (i.p.) in volumes of 0.1 cc per 10 mg body weight.
Testing was performed as previously described (Brachman et al., 2016; Chen et al., 2020a). Briefly, the testing apparatus consisted of a plastic box (50×50×20 cm). The floor was covered with approximately 2 cm of wooden bedding and the arena was brightly lit (approximately 1000 lux). […] The latency of the mice to begin eating was recorded. Immediately after the latency was recorded, the food pellet was removed from the arena. The mice were then placed into their home cage and the amount of food consumed in 5 min was measured (home cage consumption), followed by an assessment of post-restriction weight. […]

Structure (SMILES) | memory retrieval ([1]; 1×(R,S)-ketamine 30 mg/kg) | learning (freezing during training) ([1]; single injection) | freezing during training ([1]; male Ctrl mice, single injection, compared to other groups) | perseverative behavior (number of marbles buried) ([2]; female Ctrl mice, prophylactic administration, FIG. 3) | behavioral deficits [3] | hippocampal astrogliosis and microgliosis [3] | number of amyloid plaques and level of amyloid beta (Aβ) species [3] | memory retrieval ([1]; 7×prucalopride 3 mg/kg) | affinity for the hERG channels [4] | weight and weight loss [5] | latency to feed in home cage [6] | percentage of marbles buried ([2]; 7×prucalopride 1.5 mg/kg) | percentage of marbles buried ([2]; 7×prucalopride 3 mg/kg)
CNC1(c2ccccc2Cl)CCCCC1=O (racemic) [(R,S)-ketamine, (RS)-2-(2-chlorophenyl)-2-(methylamino)cyclohexanone] | improved | Neither (R,S)-ketamine nor prucalopride, whether administered solely or jointly, affected learning | increased | decreased |  |  |  |  |  |  |  |  | 
CCCCN1CCC(CCC(=O)c2cc(Cl)c(N)cc2OC)CC1.Cl [RS-67,333, 1-(4-amino-5-chloro-2-methoxyphenyl)-3-[1(n-butyl)-4-piperidinyl]-1-propanone HCl] |  |  |  |  | effective in improving | decreasing | decreasing |  |  |  |  |  | 
COCCCN1CCC(NC(=O)c2cc(Cl)c(N)c3c2OCC3)CC1 [prucalopride, 4-amino-5-chloro-2,3-dihydro-N-[1-3-methoxypropyl)-4-piperidinyl]-7-benzofuran carboxamide monohydrochloride] |  | Neither (R,S)-ketamine nor prucalopride, whether administered solely or jointly, affected learning |  |  |  |  |  | improved | no affinity | neither weight nor weight loss was impacted | more quickly | decreased | decreased
